Results as given in paper PMC10760840, “Synthesis of new imine-/amine-bearing imidazo[1,2-a]pyrimidine derivatives and screening of their cytotoxic activity” (Turkish Journal of Chemistry, 2023).
Values belong to the compound of their own block, whether it stands above or below them.

What was measured:
MCF-7 cells = assay: Sulforhodamine B (SRB) antiproliferative assay, MCF-7; format: cell-based, human; settings: for IC50: Homo sapiens, MCF7, 48 h, SRB; for IC50 / inhibition on cell proliferation: MCF-7 cells; for inhibition on cell proliferation: 100 μM dose, SRB screening; for Selectivity index (SI): MCF-7 relative to healthy HUVEC cells
Description: (§1) MCF-7 (human breast cancer) and HUVEC (human umbilical vein endothelial) cell lines were cultured and maintained in high glucose Dulbecco’s modified Eagle medium supplemented with 10% FBS (Gibco Life Technologies, Grand Island, NY, USA), 100 U/mL penicillin, and […]. The MDA–MB-231 (human breast cancer) cell line was cultured in Roswell Park Memorial Institute 1640 (RPMI 1640) medium supplemented with 10% FBS (Gibco Life Technologies), 100 U/mL penicillin, and […]. All cells were passaged by trypsin EDTA when they reached 60%–70% confluence. The cells were cultivated at 37 °C in humidified air containing 5% CO2.
(§2) The antiproliferative effects of compounds on breast cancer cells were determined by the sulforhodamine B (SRB) assay. In short, cells were seeded in a 96-well cell culture plate at a density of 5 × 10^4 cells/mL and the plate was incubated for 24 h in a CO2 incubator at 37 °C. MCF-7, MDA–MB-231, and HUVEC cells were cultured for 48 h with escalating doses (1, 5, 10, 25, 50, and 100 μM) of the derivatives for determination of the IC50 values. After incubation, the medium was removed from the wells and each well was incubated with a 10% trichloroacetic acid (TCA) solution for fixation at +4 °C for 1 h. The wells were washed five times with distilled water (dH2O) to get rid of the TCA and the plate was left to dry. Fresh 0.04 (m/V) SRB dye solution was added to each well, followed by incubation for 30 min at room temperature. The plate was then dried using an air dryer after being washed four times with 1% acetic acid solution. The wells were incubated in 10 mM of the tris-base solution (pH 10.5) for 10 min on a shaker and absorbance values were measured at 565 nm with a microplate reader (Tecan Infinite® 200 PRO, Switzerland). The IC50 values of the compounds were recorded using the software GraphPad Prism 5.

MDA–MB-231 cells = assay: Sulforhodamine B (SRB) antiproliferative assay, MDA–MB-231; format: cell-based, human; settings: for IC50: Homo sapiens, 48 h, SRB; for IC50 / inhibition on cell proliferation: MDA–MB-231 cells; for inhibition on cell proliferation: 100 μM dose, SRB screening; for Selectivity index (SI): MDA–MB-231 relative to healthy HUVEC cells
Description: as §1, §2

HUVEC cells = assay: Sulforhodamine B (SRB) cytotoxicity assay, HUVEC healthy cells; format: cell-based; settings: Homo sapiens, 48 h
Description: as §1
The antiproliferative effects of compounds on breast cancer cells were determined by the sulforhodamine B (SRB) assay. In short, cells were seeded in a 96-well cell culture plate at a density of 5 × 10^4 cells/mL and the plate was incubated for 24 h in a CO2 incubator at 37 °C. MCF-7, MDA–MB-231, and HUVEC cells were cultured for 48 h with escalating doses (1, 5, 10, 25, 50, and 100 μM) of the derivatives for determination of the IC50 values. […] The wells were incubated in 10 mM of the tris-base solution (pH 10.5) for 10 min on a shaker and absorbance values were measured at 565 nm with a microplate reader (Tecan Infinite® 200 PRO, Switzerland). The IC50 values of the compounds were recorded using the software GraphPad Prism 5.

Bax/Bcl-2 genes = assay: Bax/Bcl-2 mRNA expression by qPCR in MDA–MB-231 cells; format: cell-based, human
Description: The mRNA levels of the Bax and Bcl-2 genes were analyzed using a qPCR protocol, following the procedure described previously. Briefly, total RNA was extracted from MDA–MB-231 cells using the Total® RNA Purification Plus Kit, following the manufacturer’s instructions (Norgen Biotek, Thorold, ON, Canada). Subsequently, synthesis of cDNA was carried out using the high-capacity cDNA reverse transcription kit (Applied Biosystems, Foster City, CA, USA). The diluted cDNA samples were combined with specific Taqman probes and Taqman PCR Master Mix, and the amplification was recorded using Applied Biosystems 7500 Real-Time PCR systems (Applied Biosystems, Thermo Fisher Scientific) for qPCR. Changes in mRNA expression levels were determined using the comparative ΔΔCT method, with β-actin serving as an endogenous control for the qPCR analysis.

- melting point: 191 to 192 °C
Structure (SMILES): COc1ccc(N=Cc2cn3cccnc3n2)cc1 [3c, N-(4-Methoxyphenyl)-1-(imidazo[1,2-a]pyrimidin-2-yl)methanimine]

- IC50 (MCF-7 cells): 43.4 µM
- melting point: 182 to 183 °C
Structure (SMILES): CCN(CC)c1ccc(/N=C/c2cn3cccnc3n2)cc1 [3d, N-(4-(N^ı,N^ı-Diethylamino)phenyl)-1-(imidazo[1,2-a]pyrimidin-2-yl)methanimine]
- inhibition on cell proliferation (MCF-7 cells): greatest inhibition
- Selectivity index (SI) (MCF-7 cells): 1.6
- IC50 (MDA–MB-231 cells): 35.9 µM
- inhibition on cell proliferation (MDA–MB-231 cells): greatest inhibition
- Selectivity index (SI) (MDA–MB-231 cells): 2.0
- IC50 (HUVEC cells): 71.4 µM
- Bax/Bcl-2 ratio (mRNA expression level) (Bax/Bcl-2 genes; IC50 dose (4d: 35.1 μM)): did not have significant effects
- Bax/Bcl-2 ratio (mRNA expression level) (Bax/Bcl-2 genes; IC50 × 2 dose (4d: 70.2 μM)): did not have significant effects

- melting point: 217 to 218 °C
Structure (SMILES): FC(F)(F)c1ccc(NCc2cn3cccnc3n2)cc1 [4e, N-(4-Trifluoromethylphenyl)-1-(imidazo[1,2-a]pyrimidin-2-yl)methanamine]

- melting point: 217 to 219 °C
Structure (SMILES): c1ccc2c(NCc3cn4cccnc4n3)cccc2c1 [4b, N-(Naphthalen-1-yl)-1-(imidazo[1,2-a]pyrimidin-2-yl)methanamine]

- melting point: 224 to 226 °C
Structure (SMILES): FC(F)(F)c1ccc(N=Cc2cn3cccnc3n2)cc1 [3e, N-(4-Trifluoromethylphenyl)-1-(imidazo[1,2-a]pyrimidin-2-yl)methanimine]

- melting point: 194 to 197 °C
Structure (SMILES): c1ccc(NCc2cn3cccnc3n2)cc1 [4a, N-(Phenyl)-1-(imidazo[1,2-a]pyrimidin-2-yl)methanamine]

- melting point: 175 to 176 °C
Structure (SMILES): COc1ccc(NCc2cn3cccnc3n2)cc1 [4c, N-(4-Methoxyphenyl)-1-(imidazo[1,2-a]pyrimidin-2-yl)methanamine]

- IC50 (MCF-7 cells): 39 µM
- melting point: 146 to 148 °C
Structure (SMILES): CCN(CC)c1ccc(NCc2cn3cccnc3n2)cc1 [4d, N-(4-(N^ı,N^ı-Diethylamino)phenyl)-1-(imidazo[1,2-a]pyrimidin-2-yl)methanamine]
- inhibition on cell proliferation (MCF-7 cells): greatest inhibition
- Selectivity index (SI) (MCF-7 cells): 1.5
- IC50 (MDA–MB-231 cells): 35.1 µM
- inhibition on cell proliferation (MDA–MB-231 cells): greatest inhibition
- Selectivity index (SI) (MDA–MB-231 cells): 1.6
- IC50 (HUVEC cells): 57 µM
- Bax/Bcl-2 ratio (mRNA expression level) (Bax/Bcl-2 genes; IC50 dose (4d: 35.1 μM)): 1.5 fold
- Bax/Bcl-2 ratio (mRNA expression level) (Bax/Bcl-2 genes; IC50 × 2 dose (4d: 70.2 μM)): 1.8 fold
